Results reported in article PMC11926880, “Procognitive Potential of Neuroprotective Triazine 5-HT6 Receptor Antagonists Tested on Chronic Activity In Vivo in Rats: Computer-Aided Insight into the Role of Chalcogen-Differences on the Pharmacological Profile” (ACS Chemical Neuroscience, 2025).
Read-outs that look alike come from different tables or passages of the source.

How the values were obtained:
5-HT2AR = conditions: read-out: radioligand binding assay Ki; cloned receptors; cited from earlier work
SH-SY5Y cells = assay: ROS assay (2',7'DCFH2-DA), rotenone-induced neurotoxicity; format: cell-based, human
Description: The ROS measurement was assayed by 2′,7′-dichlorofluorescin diacetate (2′, 7′DCFH2-DA, Sigma, no. D6883). The protocol was previously described in detail.[10] […] The following day, all treatments were carried out with warmed HBSS containing 25 mM HEPES (hereafter referred to as HBSS), and during the operational steps, the cells were kept at 37 °C to minimize temperature stress.

rats = conditions: acute administration, male Wistar rats, (+)MK-801; cited from earlier work
[1] = pharmacokinetics in serum after single i.p. administration; format: in vivo, rat; conditions: for Vd/F: read-out: Vz/F; for half-life: read-out: t1/2λz
Description: Standard laboratory food (LSM-B) and filtered water as well as environment enrichment were freely available. Animals were randomly divided into treatment groups using a computer-based random order generator. All of the experiments were performed by two observers unaware of the treatment applied between 9:00 and 14:00 on separate groups of animals.
Rats were injected with the investigated compounds once (in pharmacokinetic studies) and for 21 days (in behavioral studies), and afterward, behavioral tests were conducted and tissue collection was done, as required. For pharmacokinetic studies, animals were fasted prior to dosing by withholding food but not water overnight. After dosing, the food was withheld for an additional 8 h. All animals were used only once. Animals were handled every day and weighed every other day in the chronic part of the experiment. Procedures involving animals and their care were conducted in accordance with current European Community and Polish legislations on animal experimentation. Additionally, all efforts were made to minimize animals’ suffering and to use only the number of animals necessary to produce reliable scientific data. […] The research program complies with the commonly accepted ‘3Rs’ (replacement and reduction of animals, refinement of experimental conditions, and procedures to minimize the harm to animals).
Moreover, five tissues (i.e., brain, heart, lungs, kidneys, and liver) were harvested and rinsed with cold saline. Blood was allowed to clot at room temperature for 15–20 min and then centrifuged (3000 rpm for 10 min). The obtained serum and tissues were stored at −80 °C until analysis.
Peak areas were integrated automatically using an EZChrome Elite v. 3.3.2 software (VWR, Darmstadt, Germany) chromatographic workstation.
The mobile phase consisting of methanol −10 mM potassium dihydrogen phosphate buffer (pH 4.6) and acetonitrile (51:40:9, v/v/v) was passed under vacuum through a 0.22 μm filter membrane.
Before analysis, tissue samples were thawed, weighed (200–250 mg), and placed in 5 mL plastic tubes with four volumes (w/v) of PBS (pH 7.4) and homogenized individually using a MICCRA D-1 homogenizer (ART Prozess & Labortechnik GmbH & Co., Germany). Serum (500 μL) or homogenate samples (500 μL) were mixed with an IS solution ((RS)-4-(4-methylpiperazin-1-yl)-6-(1-phenoxypropyl)-1,3,5-triazin-2-amine), 50 ng/mL in methanol. The samples were alkalized with 50 μL of 4 M sodium hydroxide solution, vortex-mixed, and extracted with 1 mL of ethyl acetate/hexane (30/70, v/v) mixture on a shaker (VXR Vibrax, IKA, Germany) for 20 min. After centrifugation (Eppendorf, Mini Spin Plus, Bionovo, Poland), the organic layers were transferred into new Eppendorf tubes containing 100 μL of methanol and 0.1 M sulfuric acid (10/90, v/v) mixture. Then, the samples were shaken and centrifuged again. Finally, 60–90 μL of each acidic layer was injected into the HPLC system.
The method was validated according to the procedures and acceptance criteria recommended for bioanalytical method validation for pharmacokinetic studies.[45]
The serum concentration–time data were analyzed by a noncompartmental method using the WinNonlin 8.2 nonlinear least-squares regression program (Pharsight Corporation, a Certara Company, Princeton, NJ, USA) to obtain pharmacokinetic parameters. […] The area under the serum concentration–time curve from time zero to time t (AUC0–t), where t is the time of the last measurable sample, was calculated according to the linear trapezoidal rule. The AUC from time zero to infinity (AUC0–∞) was estimated as AUC0–t + Ct/λz, where Ct was the serum concentration of the last measurable sample. The clearance (CL/F) was calculated as D/AUC0–∞, and the volume of distribution based on the terminal phase (Vz/F) was estimated as D/(λz·AUC0–∞), where F is the bioavailability of intraperitoneal administration.

[2] = 1.0 mg/kg i.p., single, 1 mg/kg
[3] = male, Wistar, rat, ip, 0.3 mg/kg i.p., single
[4] = male, Wistar, rat, ip, 0.3 mg/kg, 0.3 mg/kg i.p., single
[5] = male, Wistar, rat, ip, 1.0 mg/kg i.p., single
[6] = male, Wistar, rat, ip, 1 mg/kg, 1.0 mg/kg i.p., single

CN1CCN(c2nc(N)nc(C(C)(C)Sc3ccc4ccccc4c3)n2)CC1 [WA-22, 4-(4-methylpiperazin-1-yl)-6-(2-(naphthalen-2-ylthio)propan-2-yl)-1,3,5-triazin-2-amine]
Ki (5-HT2AR): 39 nM
ROS level (Ctr set as 100%) (SH-SY5Y cells; compound 10 μM pretreatment 1 h, then ROT 32.5 μM 3 h): 128%
effect on ROS of compound alone (SH-SY5Y cells; without ROT): did not exert any effect
memory-protective action at doses as low as (rats): 0.3 mg/kg
Cmax after 1.0 mg/kg i.p. in relation to 0.3 mg/kg i.p. [1]: 3.8 fold
Cmax ([1]; 0.3 mg/kg i.p., single, 0.3 mg/kg): 18.65 ± 1.87 ng/mL
Cmax [1, 2]: 71.05 ± 26.52 ng/mL
Vz/F [1, 2]: 75.43 ± 28.17 L/kg
t1/2λz [1, 2]: 2.8115 ± 0.7785 h
AUC(0-t) [1, 3]: 14 ng·h/mL
CL/F [1, 3]: 255 mL/min/kg
MRT [1, 3]: 1.61 h
Tmax [1, 3]: 5 min
Cmax ([1]; male, Wistar, rat, ip, 0.3 mg/kg, 0.3 mg/kg i.p., single, read-out: Cmax): 18.7 ng/mL
Vd/F [1, 4]: 28.1 ± 6.41 L/kg
half-life [1, 4]: 1.29 ± 0.349 h
AUC(0-inf) ([1]; male, Wistar, rat, ip, 1 mg/kg i.p., single): 55.9 ng·h/mL
AUC(0-t) [1, 5]: 42.3 ng·h/mL
CL/F [1, 5]: 313 mL/min/kg
MRT [1, 5]: 2.7 h
Tmax [1, 5]: 5 min
Cmax ([1]; male, Wistar, rat, ip, 1 mg/kg, 1.0 mg/kg i.p., single, read-out: Cmax): 71.1 ng/mL
Vd/F [1, 6]: 75.4 L/kg
half-life [1, 6]: 2.81 h
